Test results from article PMC12434071, “Platinum-group metal half-sandwich complexes of 1-(α-D-glucopyranosyl)-4-hetaryl-1,2,3-triazoles: synthesis, solution equilibrium studies, and investigation of their anticancer and antimicrobial activities” (Frontiers in Chemistry, 2025).

Columns and labels:
[1] = pH-potentiometric titration, stability constants (logβ) of ML complexes; assay type: physicochemical; details: [(η^5-Cp*)Rh]^2+; 0.20 M KCl, 25.0°C
From the text: […]. […] Comparing the two metal ion containing systems, the complexation with [(η^6-p-cym)Ru]^2+, starts at a more acidic pH, but hydrolytic processes occur already in the physiological pH range due to the higher affinity of the metal ion to hydrolysis. For the [(η^5-Cp*)Rh]^2+, these processes are shifted towards higher pH; […].
For solution studies, doubly deionized and ultra-filtered water was obtained from a Milli-Q RG (Millipore) water purification system. pH-potentiometric measurements were carried out at a constant ionic strength of 0.20 M KCl and at 25.0°C. Carbonate-free KOH solutions of known concentrations (ca. 0.2 M) were used as titrant. […]. A Mettler Toledo DL50 titrator equipped with a DG114-SC combined glass electrode was used for the pH-potentiometric measurements. […] The titrations were performed in the pH range of 2.0–11.0 in equilibrium-controlled mode, during which the pH equilibrium was assumed to be reached if a change in the measured potential was less than 0.1 mV within 90 s. […] The protonation constants of the ligands and the overall stability constants of the complexes, βp,q,r = [MpHqLr]/[M]^p[H]^q[L]^r (where “M” stands for [(η^5-Cp*)Rh(H2O)3]^2+ and “L” represents the completely deprotonated form of the ligand), were calculated with the aid of the SUPERQUAD ([Gans et al., 1985]) and PSEQUAD ([Zékány and Nagypál, 1985]) computer programs, respectively. […]

[2] = pH-potentiometric titration, protonation constants (pKa) of the ligands; assay type: physicochemical; details: 0.20 M KCl, 25.0°C; N-heterocyclic ring of the ligand
Method: In order to obtain information on the acidbase character of the ligands and on the stoichiometry and stability of the complexes present in aqueous medium, potentiometric titrations were carried out in selected systems. Based on the results, both 3a and 3b, having good enough solubility in water, are capable of releasing one hydrogen ion from the fully protonated forms in the measurable pH range (see Figure 3, “pK”). The calculated pK a values appear in Table 4; these values belong to the N-heterocyclic ring of the ligands. […]. For comparison, the previously prepared β-anomeric pair of 3a, compound 3a-β ([Kacsir et al., 2021]) in Table 4, was also studied.
For solution studies, doubly deionized and ultra-filtered water was obtained from a Milli-Q RG (Millipore) water purification system. pH-potentiometric measurements were carried out at a constant ionic strength of 0.20 M KCl and at 25.0°C. Carbonate-free KOH solutions of known concentrations (ca. 0.2 M) were used as titrant. […]. A Mettler Toledo DL50 titrator equipped with a DG114-SC combined glass electrode was used for the pH-potentiometric measurements. […] The titrations were performed in the pH range of 2.0–11.0 in equilibrium-controlled mode, during which the pH equilibrium was assumed to be reached if a change in the measured potential was less than 0.1 mV within 90 s. […]

logβ [ML] [1]: 5.50 (4)
pK a [2]: 3.59 (1)
SMILES: OC[C@H]1O[C@H](n2cc(-c3ccccn3)nn2)[C@H](O)[C@@H](O)[C@@H]1O [Complex 3a, 1-(α-D-Glucopyranosyl)-4-(pyridin-2-yl)-1,2,3-triazole]
